Several values for one entry are separate records, joined by “and”; a condition that tells them apart may be missing. Equal entries are not always repeated. Where two headings read alike, the source gives them in different places.
How the values were obtained:
[1] = system: human melanoma (MDA-MB-435 cells); assay: Melanoma growth in SCID mice bearing MDA-MB-435 xenograft; format: in vivo, mouse; details: 5 days-on/2 days-off; for tumor growth (volume): from Day 16
Experimental: In experiments with SCID mice, 5 week old CB17/lcr-Prkdcscid/lcrlcoCrl mice (sourced from Charles River Laboratories, USA) were inoculated s.c. with human MDA-MB-435 cells (2.5×10^6 cells/animal in 100 μl PBS) in the third mammary fat pad on Day 0. These cells were also sourced from ATCC. BT2 was suspended at 9.6 mg/ml in vehicle (saline containing 0.5% (v/v) Tween 80 and 0.01% (v/v) DMSO) and sonicated. Vehicle or BT2 were administered i.p. or intratumorally (i.t.) 20 mg/kg (i.t.) or 200 mg/kg (i.p.), once a day on a 5 days-on/2 days-off schedule. Treatment commenced on Day 16 and ended on Day 43. Tumor growth and body weight data is sourced from the animal study described in Li et al (Li et al., 2019) with the same vehicle group.
Tumors were measured by length and width in mm twice per week for MDA-MB-435 in SCID mice and by length, width and height in mm once per day for B16F10 in C57BL/6J mice. Tumor volumes were calculated using formula V=(L×W×H×π)/6 (B16F10) or V=L×W×W/2 (MDA-MB-435). If a second tumor was detected in an animal, both tumor volumes were measured and their volumes combined. Animal protocols were approved by the Explora Biolabs' Institutional Animal Care and Use Committee (IACUC) and the UNSW Animal Care and Ethics Committee.
BT2's ability to inhibit melanoma growth was investigated in a murine xenograft model. Immunocompromised SCID mice (C.B.17/lcr-Prkdcscid/lcrlcoCrl) bearing human melanoma (MDA-MB-435 cells, also mutant BRAF^V600E) were treated with 20 mg/kg BT2 intratumorally (i.t.) on a 5 days-on/2 days-off regime (FIG. 5A).
To assess the effect of BT2 when delivered systemically (rather than locally) in the same immunodeficient mouse model, C.B.17 SCID mice bearing s.c. MDA-MB-435 tumors were given BT2 200 mg/kg or vehicle i.p. once a day on a 5 days-on/2 days-off schedule. Treatment commenced on Day 16 (FIG. 7A).

PD-L1 = assay: Immunohistochemistry of B16F10 tumors (Day 17), PD-L1; format: in vivo, mouse; details: B16F10 tumors Day 17, 200 mg/kg i.p., vs vehicle
Description: Immunohistochemical staining and analyses. Rabbit monoclonal anti-CD3 (cat. no. ab16669; mouse, rat and human reactive), rabbit monoclonal anti-PD-1 (cat. no. ab214421), rabbit monoclonal anti-CD68 (cat. no. ab125212) antibodies were obtained from Abcam, rabbit monoclonal anti-phospho-ERK (Thr^202/Tyr^204) (cat. no. CST4370), rabbit monoclonal total ERK (cat. no. CST4695), antibodies were obtained from Cell Signaling Technology. Rabbit polyclonal anti-PD-L1 (cat. no. PA5-20343) antibody was obtained from ThermoFisher.
Formalin fixed, paraffin embedded sections were prepared from tumors. Heat-induced epitope retrieval was applied to all deparaffinized sections (4 μm sections on Superfrost slides) with citrate buffer, pH 6.0 for 5 min at 110° C. Sections were blocked with Dual Endogenous Enzyme Block (DAKO, S2003) for 10 min and then with 2% skim milk for 20 min. Slides were incubated with primary antibody for 60 min at room temperature or overnight at 4° C. and then for 10 min with probe of MACH3 Rabbit AP-Polymer Detection solution (Biocare Medical, M3R533 G, H, L). […] Integrated optical density (IOD) or area of positive staining (red chromagen) was assessed using Image-Pro Plus software (Cybernetics, Bethesda, MD, USA). Positive staining was the average of quantitation in 4-8 fields of view under 20× or 40× objectives. […]

[2] = Systemic pharmacokinetics after oral (PO) and intraperitoneal (IP) administration; format: in vivo; details: male, CD-1, mouse, plasma, 30 mg/kg, male CD-1 mice; for bioavailability: PO, read-out: relative bioavailability
Experimental: Systemic pharmacokinetics after oral (PO) and intraperitoneal (IP) administration. Male CD-1 mice were injected with BT2 in Formulation 1, Formulation 2 or Formulation 3 (Table 4) and blood was collected after 0.083, 0.25, 0.5, 1, 2, 4, 8 and 24 h. BT2 was given PO or IP injection.
Approximately 110 μl blood samples were collected (n=3/time point, 3 mice/group) into tubes with EDTA-K2 anticoagulant. All blood samples were put on wet ice prior to centrifuging (6000 g, 4° C. for 5 min) to obtain plasma, which were stored at −70° C. or dry ice until analysis.
Plasma samples were analysed by LC-MS/MS (SCIEX ExionLC)-MS/MS (Triple Quad 6500+ With Analyst 1.7.1 AB Sciex). HPLC was performed using a Waters Acquity UPLC HSS T3 1.8 μm, 2.1×50 mm column with Mobile Phase A: H2O-0.025% FA+1 mM NH4OAc and Mobile Phase B: MeOH-0.025% FA+1 mM NH4OAc and injection volume 3 μl.
LC-MS/MS detection was performed for BT2 in plasma of mice given BT2 either by oral gavage (PO) or intraperitoneal (IP) injection. Plasma samples were processed (protein precipitation method used) and injected into LC-MS/MS (SCIEX ExionLC coupled with Triple Quad 6500+).

endothelial cells = details: shown previously, cited from earlier work
[3] = MDA-MB-435, 20 mg/kg i.t. once a day

CCOC(=O)Nc1ccc2c(c1)C(=O)N(CC)c1ccccc1O2 [BT2, (10-ethyl-11-oxo-10,11-dihydro-dibenzo[b,f][1,4]oxazepin-2-yl)-carbamic acid ethyl ester]
body weight [1, 3]: no adverse effect on body weight
tumor growth (volume) [1, 3]: caused growth inhibition
tumor growth (volume) ([1]; MDA-MB-435, 200 mg/kg i.p. once a day): no inhibition was observed
PD-L1 levels in tumors (IHC) (PD-L1): increased
AUC(0-t) ([2]; ip, Formulation 1 (G2)): 1440 ng·h/mL and 4.41 µM·h
Cmax ([2]; ip, Formulation 1 (G2)): 1070 ng/mL and 3.29 µM
Tmax ([2]; ip, Formulation 1 (G2)): 15 min
half-life ([2]; ip, Formulation 1 (G2)): 523 min
AUC(0-t) ([2]; ip, Formulation 3 (G6)): 1180 ng·h/mL and 3.62 µM·h
Cmax ([2]; ip, Formulation 3 (G6)): 2.59 µM and 846 ng/mL
Tmax ([2]; ip, Formulation 3 (G6)): 30 min
half-life ([2]; ip, Formulation 3 (G6)): 505 min
bioavailability ([2]; po, Formulation 1 (G1)): 13.1%
AUC(0-t) ([2]; po, Formulation 1 (G1)): 189 ng·h/mL and 0.579 µM·h
Cmax ([2]; po, Formulation 1 (G1)): 177 nM and 57.9 ng/mL
Tmax ([2]; po, Formulation 1 (G1)): 15 min
bioavailability ([2]; po, Formulation 3 (G5)): 28.8%
AUC(0-t) ([2]; po, Formulation 3 (G5)): 340 ng·h/mL and 1.04 µM·h
Cmax ([2]; po, Formulation 3 (G5)): 53.7 ng/mL and 165 nM
Tmax ([2]; po, Formulation 3 (G5)): 60 min
ERK phosphorylation and expression of FosB/ΔFosB and VCAM-1, and VEGF (endothelial cells; endothelial cells): inhibit
endothelial cell proliferation and migration, angiogenesis and wound repair (endothelial cells): inhibit

Reference: US20250352555A1, “METHOD OF INCREASING IMMUNE CELL ACTIVATION AND/OR TREATING CANCER USING DIBENZOXAZEPINONES” (VASCULAR THERAPEUTICS PTY LTD, priority 2022, published 2025)
